# Test results reported in paper PMC5515969, “Effects of 31 FDA approved small-molecule kinase inhibitors on isolated rat liver mitochondria” (Archives of Toxicology, 2016).
# Where two headings read alike, the source gives them in different places.
# Tests used:
# [1] = system: RCC IV; assay: RCC IV activity in submitochondrial particles; assay type: biochemical, rat; set-up: key to RCC IV at 50XCmax / RCC IV at 100XCmax: activity relative to DMSO-treated controls (control set as 1 = 100%); details: 50XCmax; DMSO treated samples set as 1; in %
# How it was run: (§1)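 Rat submitochondrial particles (1 mg/ml) were treated with test compounds for 15 min. RCC IV, like RCC III, was monitored at 550 nm every 10 s for 2 min, and RCC I/V at 340 nm each minute for 6 min. DMSO samples defined unit activity.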
# [2] = system: RCC III; assay: RCC III activity in submitochondrial particles; assay type: biochemical, rat; set-up: key to RCC III at 100XCmax: activity relative to DMSO-treated controls (control set as 1 = 100%); details: 100XCmax
# How it was run: as §1
# [3] = system: isolated rat liver mitochondria; assay: Mitochondrial ROS production (CM-H2DCFDA); details: DMSO treated samples set as 1
# [4] = system: isolated rat liver mitochondria; assay: Mitochondrial swelling (absorbance at 535 nm); assay type: biochemical; details: difference in signal between KI and DMSO treated samples at the end of experiments; as to Swelling 5XCmax: key: 0 indicates that the drug had no effects (negative)
# [5] = system: isolated rat liver mitochondria; assay: Mitochondrial oxygen consumption (glutamate/malate or succinate driven, state 4 and state 3); assay type: biochemical; details: DMSO treated samples set as 1; as to State 3 respiration driven by succinate at 10XCmax: key: 0 indicates that the drug had no effects (negative); as to State 3 respiration driven by succinate at 1XCmax: key: 0 indicates that the drug had no effects (negative)
# How it was run: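 Oxygen uptake on glutamate/malate or on succinate defined state 4; ADP added 3 min later gave state 3. Mitochondria isolated from rat liver by differential centrifugation, adjusted to 1 mg/ml and pretreated 5 min with inhibitor (0.1% DMSO final). Values relative to DMSO control, set to 1.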
# [6] = system: isolated rat liver mitochondria; assay: Mitochondrial inner membrane potential (MMP), Rhodamine 123; assay type: biochemical; details: difference in signal between KI and DMSO treated samples at the end of experiments
# Excerpt: Fig. 3 KI effects on mitochondrial inner membrane potential (MMP). […] In a, c, data are means and standard derivations from three separate experiments. *p < 0.05 as compared to DMSO-treated samples at the end of experiments. In b, data are means of two independent experiments
# [7] = system: isolated rat liver mitochondria; details: positive control alamethicin treated samples
# [8] = cited from earlier work
# [9] = cited from earlier work; for Labeling for DILI: BBW: black box warning, W&P: Warnings and Precautions
# [10] = human therapeutic maximal blood concentration, ref product labeling
# [11] = read-out: Cmax at µM, human therapeutic maximal blood concentration, ref product labeling
# [12] = 1 DILI positive, 0 negative according to labeling, ref product labeling
compound,measurement,setting,value
COC(=O)c1ccc2c(c1)NC(=O)/C2=C(\Nc1ccc(N(C)C(=O)CN2CCN(C)CC2)cc1)c1ccccc1 [Nintedanib],RCC IV at 50XCmax,[1],0
same,RCC III at 100XCmax,[2],0
same,ROS measured by CM-H2DCFDA at 1XCmax,[3],0
same,ROS measured by CM-H2DCFDA at 2.5XCmax,[3],0
same,ROS measured by CM-H2DCFDA at 5XCmax,[3],0
same,ROS measured by CM-H2DCFDA at 10XCmax,[3],0
same,ROS measured by CM-H2DCFDA at 20XCmax,[3],0
same,ROS measured by CM-H2DCFDA at 30XCmax,[3],0
same,ROS measured by CM-H2DCFDA at 50XCmax,[3],0
same,ROS measured by CM-H2DCFDA at 100XCmax,[3],0
same,Swelling 1XCmax,[4],0
same,Swelling 2.5XCmax,[4],0
same,Swelling 5XCmax,[4],0
same,Swelling 10XCmax,[4],0
same,Swelling 20XCmax,[4],0
same,Swelling 30XCmax,[4],0
same,Swelling 50XCmax,[4],0
same,Swelling 100XCmax,[4],0
same,State 3 respiration driven by glutamate/malate at 1XCmax,[5],0
same,State 3 respiration driven by succinate at 1XCmax,[5],0
same,State 4 respiration driven by glutamate/malate at 1XCmax,[5],0
same,State 4 respiration driven by succinate at 1XCmax,[5],0
same,State 3 respiration driven by glutamate/malate at 2.5XCmax,[5],0
same,State 3 respiration driven by succinate at 2.5XCmax,[5],0
same,State 4 respiration driven by glutamate/malate at 2.5XCmax,[5],0
same,State 4 respiration driven by succinate at 2.5XCmax,[5],0
same,State 3 respiration driven by glutamate/malate at 5XCmax,[5],0
same,State 3 respiration driven by succinate at 5XCmax,[5],0
same,State 4 respiration driven by glutamate/malate at 5XCmax,[5],0
same,State 4 respiration driven by succinate at 5XCmax,[5],0
same,State 3 respiration driven by glutamate/malate at 10XCmax,[5],0
same,State 3 respiration driven by succinate at 10XCmax,[5],0
same,State 4 respiration driven by glutamate/malate at 10XCmax,[5],0
same,State 4 respiration driven by succinate at 10XCmax,[5],0
same,State 3 respiration driven by glutamate/malate at 20XCmax,[5],0
same,State 3 respiration driven by succinate at 20XCmax,[5],0
same,State 4 respiration driven by glutamate/malate at 20XCmax,[5],0
same,State 4 respiration driven by succinate at 20XCmax,[5],0
same,State 3 respiration driven by glutamate/malate at 30XCmax,[5],0
same,State 3 respiration driven by succinate at 30XCmax,[5],0
same,State 4 respiration driven by glutamate/malate at 30XCmax,[5],0
same,State 4 respiration driven by succinate at 30XCmax,[5],0
same,State 3 respiration driven by glutamate/malate at 50XCmax,[5],0
same,State 3 respiration driven by succinate at 50XCmax,[5],0
same,State 4 respiration driven by glutamate/malate at 50XCmax,[5],0
same,State 4 respiration driven by succinate at 50XCmax,[5],0
same,State 3 respiration driven by glutamate/malate at 100XCmax,[5],0
same,State 3 respiration driven by succinate at 100XCmax,[5],0
same,State 4 respiration driven by glutamate/malate at 100XCmax,[5],0
same,State 4 respiration driven by succinate at 100XCmax,[5],0
same,MMP measured by Rhodamine 123 at 1XCmax,[6],0
same,MMP measured by Rhodamine 123 at 2.5XCmax,[6],0
same,MMP measured by Rhodamine 123 at 5XCmax,[6],0
same,MMP measured by Rhodamine 123 at 10XCmax,[6],0
same,MMP measured by Rhodamine 123 at 20XCmax,[6],0
same,MMP measured by Rhodamine 123 at 30XCmax,[6],0
same,MMP measured by Rhodamine 123 at 50XCmax,[6],0
same,MMP measured by Rhodamine 123 at 100XCmax,[6],0
same,Cytochrome c release 1XCmax,[7],0
same,Cytochrome c release 2.5XCmax,[7],0
same,Cytochrome c release 5XCmax,[7],0
same,Cytochrome c release 10XCmax,[7],0
same,Cytochrome c release 20XCmax,[7],0
same,Cytochrome c release 30XCmax,[7],0
same,Cytochrome c release 50XCmax,[7],0
same,Cytochrome c release 100XCmax,[7],0
same,Cmax,"[8]; human therapeutic Cmax at FDA recommended dosages, ref product labeling and drug approval packages at the official FDA website",0.06 µM
same,Cmax (ng or µg/ml),[8]; [10],0.0349 µg/mL
same,Cmax,[8]; [11],0.06 µM
same,DILI potential (based on labeling),[9]; [12],1
same,Labeling for DILI,[9]; ref product labeling,W&P: ALT↑
same,labeling for DILI,"[9]; W&P warnings and precautions, BBW black box warnings, ref FDA product labeling",W&P: ALT↑/monitoring
same,DILI potential (based on labeling),[9]; ref FDA product labeling,1
CN(C)C/C=C/C(=O)Nc1cc2c(Nc3ccc(F)c(Cl)c3)ncnc2cc1O[C@H]1CCOC1 [afatinib dimaleate],RCC IV at 50XCmax,[1],0
same,RCC III at 100XCmax,[2],0
same,ROS measured by CM-H2DCFDA at 1XCmax,[3],0
same,ROS measured by CM-H2DCFDA at 2.5XCmax,[3],0
same,ROS measured by CM-H2DCFDA at 5XCmax,[3],0
same,ROS measured by CM-H2DCFDA at 10XCmax,[3],0
same,ROS measured by CM-H2DCFDA at 20XCmax,[3],0
same,ROS measured by CM-H2DCFDA at 30XCmax,[3],0
same,ROS measured by CM-H2DCFDA at 50XCmax,[3],0
same,ROS measured by CM-H2DCFDA at 100XCmax,[3],0
same,Swelling 1XCmax,[4],0
same,Swelling 2.5XCmax,[4],0
same,Swelling 5XCmax,[4],0
same,Swelling 10XCmax,[4],0
same,Swelling 20XCmax,[4],0
same,Swelling 30XCmax,[4],0
same,Swelling 50XCmax,[4],0
same,Swelling 100XCmax,[4],0
same,State 3 respiration driven by glutamate/malate at 1XCmax,[5],0
same,State 3 respiration driven by succinate at 1XCmax,[5],0
same,State 4 respiration driven by glutamate/malate at 1XCmax,[5],0
same,State 4 respiration driven by succinate at 1XCmax,[5],0
same,State 3 respiration driven by glutamate/malate at 2.5XCmax,[5],0
same,State 3 respiration driven by succinate at 2.5XCmax,[5],0
same,State 4 respiration driven by glutamate/malate at 2.5XCmax,[5],0
same,State 4 respiration driven by succinate at 2.5XCmax,[5],0
same,State 3 respiration driven by glutamate/malate at 5XCmax,[5],0
same,State 3 respiration driven by succinate at 5XCmax,[5],0
same,State 4 respiration driven by glutamate/malate at 5XCmax,[5],0
same,State 4 respiration driven by succinate at 5XCmax,[5],0
same,State 3 respiration driven by glutamate/malate at 10XCmax,[5],0
same,State 3 respiration driven by succinate at 10XCmax,[5],0
same,State 4 respiration driven by glutamate/malate at 10XCmax,[5],0
same,State 4 respiration driven by succinate at 10XCmax,[5],0
same,State 3 respiration driven by glutamate/malate at 20XCmax,[5],0
same,State 3 respiration driven by succinate at 20XCmax,[5],0
same,State 4 respiration driven by glutamate/malate at 20XCmax,[5],0
same,State 4 respiration driven by succinate at 20XCmax,[5],0
same,State 3 respiration driven by glutamate/malate at 30XCmax,[5],0
same,State 3 respiration driven by succinate at 30XCmax,[5],0
same,State 4 respiration driven by glutamate/malate at 30XCmax,[5],0
same,State 4 respiration driven by succinate at 30XCmax,[5],0
same,State 3 respiration driven by glutamate/malate at 50XCmax,[5],0
same,State 3 respiration driven by succinate at 50XCmax,[5],0
same,State 4 respiration driven by glutamate/malate at 50XCmax,[5],0
same,State 4 respiration driven by succinate at 50XCmax,[5],0
same,State 3 respiration driven by glutamate/malate at 100XCmax,[5],0
same,State 3 respiration driven by succinate at 100XCmax,[5],0
same,State 4 respiration driven by glutamate/malate at 100XCmax,[5],0
same,State 4 respiration driven by succinate at 100XCmax,[5],0
same,MMP measured by Rhodamine 123 at 1XCmax,[6],0
same,MMP measured by Rhodamine 123 at 2.5XCmax,[6],0
same,MMP measured by Rhodamine 123 at 5XCmax,[6],0
same,MMP measured by Rhodamine 123 at 10XCmax,[6],0
same,MMP measured by Rhodamine 123 at 20XCmax,[6],0
same,MMP measured by Rhodamine 123 at 30XCmax,[6],0
same,MMP measured by Rhodamine 123 at 50XCmax,[6],0
same,MMP measured by Rhodamine 123 at 100XCmax,[6],0
same,Cytochrome c release 1XCmax,[7],0
same,Cytochrome c release 2.5XCmax,[7],0
same,Cytochrome c release 5XCmax,[7],0
same,Cytochrome c release 10XCmax,[7],0
same,Cytochrome c release 20XCmax,[7],0
same,Cytochrome c release 30XCmax,[7],0
same,Cytochrome c release 50XCmax,[7],0
same,Cytochrome c release 100XCmax,[7],0
same,Cmax (ng or µg/ml),[8]; [10],0.0252 µg/mL
same,Cmax,[8]; [11],0.04 µM
same,DILI potential (based on labeling),[9]; [12],1
same,Labeling for DILI,[9]; ref product labeling,W&P: ALT↑
